Earlier results, collected in patent US10662178B2, “Crystalline form of Olaparib” (Apotex Inc., priority 2018, dated 2020).

Details: CHMP Assessment Report EMEA/H/C/003726/0000

Biopharmaceutics Classification System (BCS) class: Class IV
solubility (drug substance in the approved drug product LYNPARZA): low solubility
SMILES: O=C(c1cc(Cc2n[nH]c(=O)c3ccccc23)ccc1F)N1CCN(C(=O)C2CC2)CC1 [Olaparib, 4-[(3-{[4-(cyclopropylcarbonyl)-piperazin-1-yl]carbonyl}-4-fluorophenyl)methyl]phthalazin-1(2H)-one]
